# From patent publication US20080200454A1, “CARBON-LINKED TETRAHYDRO-PYRAZOLO-PYRIDINE MODULATORS OF CATHEPSIN S” (priority 2007, published 2008)
# Target: Recombinant human cathepsin S (CatS) (Homo sapiens, UniProt P25774)
# Experiment: Recombinant human cathepsin S (CatS) inhibition assay, fluorogenic substrate Z-Valine-Valine-Arginine-AMC;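 also: Baculovirus-expressed CatS in pH 5.0 sodium acetate buffer with DTT and NaCl, fluorescence read each minute over 20 min, inhibition derived from rate slope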
# Details: not given
# Recombinant human cathepsin S (CatS), sequence (P25774 115-331): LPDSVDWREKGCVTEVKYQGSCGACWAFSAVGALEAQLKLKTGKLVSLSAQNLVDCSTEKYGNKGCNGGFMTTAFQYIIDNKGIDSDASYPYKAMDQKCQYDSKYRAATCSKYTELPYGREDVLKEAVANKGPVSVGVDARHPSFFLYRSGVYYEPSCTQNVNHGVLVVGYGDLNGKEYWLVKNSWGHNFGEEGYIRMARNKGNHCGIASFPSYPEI
row,Structure (SMILES),IC50 [µM]
1,"CS(=O)(=O)N1CCc2c(c(-c3ccc(Cl)c(C#Cc4cccnc4)c3)nn2CCCN2CCOCC2)C1 [Example 21, 3-(4-Chloro-3-pyridin-3-ylethynyl-phenyl)-5-methanesulfonyl-1-(3-morpholin-4-yl-propyl)-4,5,6,7-tetrahydro-1H-pyrazolo[4,3-c]pyridine]",1.32
2,"CS(=O)(=O)N1CCc2c(c(-c3ccc(Cl)c(CCCCO)c3)nn2CCCN2CCOCC2)C1 [Example 300, 4-{2-Chloro-5-[5-(methylsulfonyl)-1-(3-morpholin-4-ylpropyl)-4,5,6,7-tetrahydro-1H-pyrazolo[4,3-c]pyridin-3-yl]phenyl}butan-1-ol]",9.2
3,"CS(=O)(=O)N1CCc2c(c(-c3ccc(Cl)c(C#Cc4ccc(CNCc5ccc(Cl)cc5)cc4)c3)nn2CCCN2CCC3(CC2)OCCO3)C1 [Example 335, 1-{4-[(2-Chloro-5-{1-[3-(1,4-dioxa-8-azaspiro[4.5]dec-8-yl)propyl]-5-(methylsulfonyl)-4,5,6,7-tetrahydro-1H-pyrazolo[4,3-c]pyridin-3-yl}phenyl)ethynyl]phenyl}-N-[(4-chlorophenyl)methyl]methanamine]",0.06
4,"NC(=O)N1CCc2c(c(-c3ccc(Cl)c(C#Cc4ccc(CNCc5ccc(Cl)cc5)cc4)c3)nn2CCCN2CCN(c3ccccn3)CC2)C1 [Example 156, 3-(4-Chloro-3-{[4-({[(4-chlorophenyl)methyl]amino}methyl)phenyl]ethynyl}phenyl)-1-[3-(4-pyridin-2-ylpiperazin-1-yl)propyl]-1,4,6,7-tetrahydro-5H-pyrazolo[4,3-c]pyridine-5-carboxamide]",0.05

# More lines, now with the values ahead:
row,IC50 [µM],Structure (SMILES)
1,0.45,"CS(=O)(=O)N1CCc2c(c(-c3ccc(Cl)c(C#Cc4cccc(CNCC5CCCO5)c4)c3)nn2CCCN2CCOCC2)C1 (stereo not drawn) [Example 510, 1-[3-({2-Chloro-5-[5-(methylsulfonyl)-1-(3-morpholin-4-ylpropyl)-4,5,6,7-tetrahydro-1H-pyrazolo[4,3-c]pyridin-3-yl]phenyl}ethynyl)phenyl]-N-(tetrahydrofuran-2-ylmethyl)methanamine]"
2,0.19,"CS(=O)(=O)N1CCc2c(c(-c3ccc(Cl)c(C#Cc4ccc5[nH]ccc5c4)c3)nn2CCCN2CCOCC2)C1 [Example 1, 3-[4-Chloro-3-(1H-indol-5-ylethynyl)-phenyl]-5-methanesulfonyl-1-(3-morpholin-4-yl-propyl)-4,5,6,7-tetrahydro-1H-pyrazolo[4,3-c]pyridine]"
3,0.03,"NC(=O)C(=O)N1CCc2c(c(-c3ccc(Cl)c(C#Cc4ccc(Cl)c(C(=O)NC[C@@H]5CCCN5)c4)c3)nn2CCCN2CCSCC2)C1 [Example 557, 5-[(5-{5-[Amino(oxo)acetyl]-1-(3-thiomorpholin-4-ylpropyl)-4,5,6,7-tetrahydro-1H-pyrazolo[4,3-c]pyridin-3-yl}-2-chlorophenyl)ethynyl]-2-chloro-N-[(2S)-pyrrolidin-2-ylmethyl]benzamide]"
4,0.06,"CS(=O)(=O)N1CCc2c(c(-c3ccc(Cl)c(C#Cc4ccc(Cl)c(C(=O)NCCN5CCOCC5)c4)c3)nn2CCCN2CCCCC2)C1 [Example 593, 2-Chloro-5-({2-chloro-5-[5-(methylsulfonyl)-1-(3-piperidin-1-ylpropyl)-4,5,6,7-tetrahydro-1H-pyrazolo[4,3-c]pyridin-3-yl]phenyl}ethynyl)-N-(2-morpholin-4-ylethyl)benzamide]"
5,0.17,"CS(=O)(=O)N1CCc2c(c(-c3ccc(Cl)c(C#Cc4ccc5c(c4)CNCC5)c3)nn2CCCN2CCOCC2)C1 [Example 360, 7-({2-Chloro-5-[5-(methylsulfonyl)-1-(3-morpholin-4-ylpropyl)-4,5,6,7-tetrahydro-1H-pyrazolo[4,3-c]pyridin-3-yl]phenyl}ethynyl)-1,2,3,4-tetrahydroisoquinoline]"
6,0.03,"C[C@H]1COCCN1CCCn1nc(-c2ccc(Cl)c(C#Cc3ccc(Cl)c(CN(CCO)CCO)c3)c2)c2c1CCN(C(=O)C(N)=O)C2 [Example 272, (S)-2-{3-[3-(3-{[Bis-(2-hydroxy-ethyl)-amino]-methyl}-4-chloro-phenylethynyl)-4-chloro-phenyl]-1-[3-(3-methyl-morpholin-4-yl)-propyl]-1,4,6,7-tetrahydro-pyrazolo[4,3-c]pyridin-5-yl}-2-oxo-acetamide]"
7,0.19,"CS(=O)(=O)N1CCc2c(c(-c3ccc(Cl)c(C#Cc4ccc(CCCC(=O)O)cc4)c3)nn2CCCN2CCOCC2)C1 [Example 8, 4-(4-{2-Chloro-5-[5-methanesulfonyl-1-(3-morpholin-4-yl-propyl)-4,5,6,7-tetrahydro-1H-pyrazolo[4,3-c]pyridin-3-yl]-phenylethynyl}-phenyl)-butyric acid]"

# Same assay, conditions: CatS IC50
row,Structure (SMILES),IC50 [µM]
1,"Cc1ccc(CNCc2ccc(C#Cc3cc(-c4nn(CCCN5CCSCC5)c5c4CN(C(N)=O)CC5)ccc3Cl)cc2)cc1 [Example 173, 3-(4-Chloro-3-{[4-({[(4-methylphenyl)methyl]amino}methyl)phenyl]ethynyl}phenyl)-1-(3-thiomorpholin-4-ylpropyl)-1,4,6,7-tetrahydro-5H-pyrazolo[4,3-c]pyridine-5-carboxamide]",0.12
2,"C[C@H]1COCCN1CCCn1nc(-c2ccc(Cl)c(C#Cc3ccc4c(c3)CNCC4)c2)c2c1CCN(S(C)(=O)=O)C2 [Example 278, 7-({2-Chloro-5-[1-{3-[(3S)-3-methylmorpholin-4-yl]propyl}-5-(methylsulfonyl)-4,5,6,7-tetrahydro-1H-pyrazolo[4,3-c]pyridin-3-yl]phenyl}ethynyl)-1,2,3,4-tetrahydroisoquinoline]",0.11
3,"CS(=O)(=O)N1CCc2c(c(-c3ccc(Cl)c(C#Cc4ccc(CN5CCc6ccccc6C5)cc4)c3)nn2CCCN2CCOCC2)C1 [Example 442, 2-{[4-({2-Chloro-5-[5-(methylsulfonyl)-1-(3-morpholin-4-ylpropyl)-4,5,6,7-tetrahydro-1H-pyrazolo[4,3-c]pyridin-3-yl]phenyl}ethynyl)phenyl]methyl}-1,2,3,4-tetrahydroisoquinoline]",0.3
4,"CS(=O)(=O)N1CCc2c(c(-c3ccc(Cl)c(C#Cc4ccc(CNCc5ccc(Cl)cc5)cc4)c3)nn2CCCN2CCC(N)CC2)C1 [Example 331, 1-{3-[3-(4-Chloro-3-{[4-({[(4-chlorophenyl)methyl]amino}methyl)phenyl]ethynyl}phenyl)-5-(methylsulfonyl)-4,5,6,7-tetrahydro-1H-pyrazolo[4,3-c]pyridin-1-yl]propyl}piperidin-4-amine]",0.17
5,"CC(C)CNCc1cccc(C#Cc2cc(-c3nn(CCCN4CCOCC4)c4c3CN(S(C)(=O)=O)CC4)ccc2Cl)c1 [Example 520, N-{[3-({2-Chloro-5-[5-(methylsulfonyl)-1-(3-morpholin-4-ylpropyl)-4,5,6,7-tetrahydro-1H-pyrazolo[4,3-c]pyridin-3-yl]phenyl}ethynyl)phenyl]methyl}-2-methylpropan-1-amine]",0.44
6,"NC(=O)N1CCc2c(c(-c3ccc(Cl)c(C#Cc4ccc(Cl)c(C(=O)N5CCCC5)c4)c3)nn2CCCN2CCSCC2)C1 [Example 570, 3-(4-Chloro-3-{[4-chloro-3-(pyrrolidin-1-ylcarbonyl)phenyl]ethynyl}phenyl)-1-(3-thiomorpholin-4-ylpropyl)-1,4,6,7-tetrahydro-5H-pyrazolo[4,3-c]pyridine-5-carboxamide]",0.26
7,"NC(=O)N1CCc2c(c(-c3ccc(Cl)c(C#Cc4ccc(Cl)c(CN5CCOCC5)c4)c3)nn2CCCN2CCSCC2)C1 [Example 606, 3-(4-Chloro-3-{[4-chloro-3-(morpholin-4-ylmethyl)phenyl]ethynyl}phenyl)-1-(3-thiomorpholin-4-ylpropyl)-1,4,6,7-tetrahydro-5H-pyrazolo[4,3-c]pyridine-5-carboxamide]",0.04
8,"CS(=O)(=O)N1CCc2c(c(-c3ccc(Cl)c(C#Cc4ccc(CNCc5nccs5)cc4)c3)nn2CCCN2CCOCC2)C1 [Example 456, 1-[4-({2-Chloro-5-[5-(methylsulfonyl)-1-(3-morpholin-4-ylpropyl)-4,5,6,7-tetrahydro-1H-pyrazolo[4,3-c]pyridin-3-yl]phenyl}ethynyl)phenyl]-N-(1,3-thiazol-2-ylmethyl)methanamine]",0.12
9,"C[C@H]1COCCN1CCCn1nc(-c2ccc(Cl)c(C#Cc3ccc(CNCc4ccc(Cl)cc4)cc3)c2)c2c1CCN(C(N)=O)C2 [Example 401, 3-(4-Chloro-3-{[4-({[(4-chlorophenyl)methyl]amino}methyl)phenyl]ethynyl}phenyl)-1-{3-[(3S)-3-methylmorpholin-4-yl]propyl}-1,4,6,7-tetrahydro-5H-pyrazolo[4,3-c]pyridine-5-carboxamide]",0.11
10,"CN1CCN(CCCn2nc(-c3ccc(Cl)c(C#Cc4ccc(CNCc5ccc(Cl)cc5)cc4)c3)c3c2CCN(S(C)(=O)=O)C3)CC1 [Example 354, 1-{4-[(2-Chloro-5-{1-[3-(4-methylpiperazin-1-yl)propyl]-5-(methylsulfonyl)-4,5,6,7-tetrahydro-1H-pyrazolo[4,3-c]pyridin-3-yl}phenyl)ethynyl]phenyl}-N-[(4-chlorophenyl)methyl]methanamine]",0.36
11,"CS(=O)(=O)N1CCc2c(c(-c3ccc(Cl)c(C#Cc4ccc(C(F)(F)F)cc4)c3)nn2CCCN2CCOCC2)C1 [Example 30, 3-[4-Chloro-3-(4-trifluoromethyl-phenylethynyl)-phenyl]-5-methanesulfonyl-1-(3-morpholin-4-yl-propyl)-4,5,6,7-tetrahydro-1H-pyrazolo[4,3-c]pyridine]",0.43

# Same assay, conditions: CatS IC50, Table 2; average of results obtained
row,Structure (SMILES),IC50 [µM]
1,"CS(=O)(=O)N1CCc2c(c(-c3ccc(Cl)c(C#CCCO)c3)nn2CCCN2CCOCC2)C1 [Example 45, 4-{2-Chloro-5-[5-methanesulfonyl-1-(3-morpholin-4-yl-propyl)-4,5,6,7-tetrahydro-1H-pyrazolo[4,3-c]pyridin-3-yl]-phenyl}-but-3-yn-1-ol]",0.92
2,"CS(=O)(=O)N1CCc2c(c(-c3ccc(Cl)c(C#Cc4ccc(C=O)cc4)c3)nn2CCCN2CCOCC2)C1 [Example 37, 4-{2-Chloro-5-[5-methanesulfonyl-1-(3-morpholin-4-yl-propyl)-4,5,6,7-tetrahydro-1H-pyrazolo[4,3-c]pyridin-3-yl]-phenylethynyl}-benzaldehyde]",0.12
